# Laboratory results as given in patent US20240425464A1, “Substituted Monohydrazides as Potent Antifungal Agents” (University of Kentucky Research Foundation, priority 2023, published 2024).
# Legend:
# [1] = test system: HepG2 cells; test: In vitro cytotoxicity assay (resazurin); type: cell-based; details: for toxicity: up to 31.3 j·tg mL^−1, 24 h
# Description: The antifungal agent amphotericin B (AmB) was purchased from VWR (Radnor PA, USA). AmB was dissolved in DMSO at a final concentration of 5 mg/mL and was stored at −20° C., protected from light. […] For cytotoxicity assays, HepG2 and the mouse macrophage cell line J774A.1 were obtained from University of Kentucky. […] Mammalian cells were grown in Dulbecco's Modified Eagle's Medium (DMEM) (from VWR) with 10% fetal bovine serum (FBS) (from VWR) and 1% Pen/Strep (from ATCC). Cell lines were cultured at 37° C. with 5% CO2 and passaged by trypsinization with 0.05% trypsin: 0.53 mM EDTA (from Sigma-Aldrich).
# Cytotoxicity assays were performed as previously described with slight modifications.^3 HepG2, J774A.1, and HEK-293 cells were first thawed from frozen stocks kept in liquid N2 and grown in Dulbecco's modified Eagles's medium (DMEM) containing 10% fetal bovine serum (FBS) and 1% Pen/Strep. […] The 96-well plates were incubated 37° C. with 5% CO2 overnight. […] The medium in the 96-well plates containing the cells was aspirated and replaced by fresh DMEM (100 μL). […] The 96-well plates were further incubated for 24 h at 37° C. with 5% CO2 overnight. To evaluate cell survival, each well was treated with 10 μL (2 mM) of resazurin sodium salt (Sigma-Aldrich, St. Louis, MO, USA) and was incubated for another 6 h. Metabolically active cells can convert resazurin to the highly fluorescent dye, resorufin, and be detected at ?560 excitation and λ590 emission using a SpectraMax M5 plate reader (Molecular Devices, San Jose, CA, USA). Triton X-100® (1%, v/v) was used as positive control; the negative control consisted of cells treated with the delivery vehicle (0.05% DMSO), and the blank control was only the culture medium with 0.05% DMSO without cells. The experiments were performed in quadruplicate.
# [2] = test system: ten other fungal strains (AR Bank #391-400); test: MIC determination, summary over ten additional fungal strains; type: cell-based; details: read-out: MIC range
# Description: (§1) The antifungal agent amphotericin B (AmB) was purchased from VWR (Radnor PA, USA). AmB was dissolved in DMSO at a final concentration of 5 mg/mL and was stored at −20° C., protected from light. Candida albicans American Type Culture Collection (ATCC) 10231 (strain A), C. albicans ATCC 64124 (B), and C. albicans ATCC MYA-2876 (C) were obtained from Utah State University. C. albicans ATCC 90819 (D), C. albicans ATCC MYA-2310 (E), C. albicans ATCC MYA-1237 (F), C. albicans ATCC MYA-1003 (G), Candida glabrata ATCC 2001 (H), Candida krusei ATCC 6258 (I), Candida parapsilosis ATCC 22019 (J), Cryptococcus neoformans ATCC MYA-895 (M), Aspergillus terreus ATCC MYA-3633 (N), and Aspergillus flavus ATCC MYA-3631 (0) were obtained from the American Type Culture Collection (ATCC; Manassas, VA, USA). Aspergillus nidulans ATCC 38163 (P) was obtained from University of Kentucky. Clinically derived Aspergillus fumigatus NRRL 163 (Q), A. fumigatus NRRL 5109 (R), and A. fumigatus NRRL 6113 (S) were obtained from Northern Regional Research Laboratory (NRRL). Candida auris 384 (K), C. auris 390 (L), and fungal strains 381-400 (including 10 C. auris (AR Bank #381-390), 3 Candida duobushaemulonii (AR Bank #391, AR Bank #392, and AR Bank #394), 2 Candida haemulonii (AR Bank #393 and AR Bank #395), 1 Kodameae ohmeri (AR Bank #396), 1 C. krusei (AR Bank #397), 1 Candida lusitaniae (AR Bank #398), and 2 Saccharomyces cerevisiae strains (AR Bank #399 and AR Bank #400)) were part of a larger fungal library from the AR Bank maintained by the Centers for Disease Control and Prevention (CDC; Atlanta, GA, USA). Filamentous fungi and yeasts were cultivated at 35° C. in RPMI 1640 medium (with L-glutamine, without sodium bicarbonate, Sigma-Aldrich, St. Louis, MO) buffered to a pH of 7.0 with 0.165 M morpholinepropanesulfonic acid (MOPS) buffer (Sigma-Aldrich). For cytotoxicity assays, HepG2 and the mouse macrophage cell line J774A.1 were obtained from University of Kentucky. The human embryonic kidney cell line, HEK-293, was bought from the ATCC. Mammalian cells were grown in Dulbecco's Modified Eagle's Medium (DMEM) (from VWR) with 10% fetal bovine serum (FBS) (from VWR) and 1% Pen/Strep (from ATCC). Cell lines were cultured at 37° C. with 5% CO2 and passaged by trypsinization with 0.05% trypsin: 0.53 mM EDTA (from Sigma-Aldrich).
# (§2) From the actively growing yeast culture, 100 µL were then transferred to 900 μL of RPMI 1640 medium and re-adjusted to achieve OD600 of 0.12 (˜1×10^6 CFU/mL). The cell suspension was further diluted to achieve 1:100 in RPMI 1640 medium.
# [3] = test system: Kodameae ohmeri AR Bank #396; test: MIC determination by in vitro antifungal assay; type: cell-based; details: strain AR Bank #396; read-out: MIC
# Description: as §1, §2
# [4] = test system: Candida duobushaemulonii AR Bank #392; test: MIC determination by in vitro antifungal assay; type: cell-based; details: Candidozyma duobushaemuli, read-out: MIC
# Description: as §1, §2
# [5] = test system: Candida haemulonii AR Bank #395; test: MIC determination by in vitro antifungal assay; type: cell-based; details: Candidozyma haemuli, read-out: MIC
# Description: as §1, §2
# [6] = test system: Candida haemulonii AR Bank #393; test: MIC determination by in vitro antifungal assay; type: cell-based; details: Candidozyma haemuli, read-out: MIC
# Description: as §1, §2
# [7] = test system: Saccharomyces cerevisiae AR Bank #399; test: MIC determination by in vitro antifungal assay; type: cell-based; details: read-out: MIC
# Description: as §1, §2
# [8] = test system: Candida duobushaemulonii AR Bank #394; test: MIC determination by in vitro antifungal assay; type: cell-based; details: Candidozyma duobushaemuli, read-out: MIC
# Description: as §1, §2
# [9] = test system: Candida lusitaniae AR Bank #398; test: MIC determination by in vitro antifungal assay; type: cell-based; details: Clavispora lusitaniae; Candida strain AR Bank #398; read-out: MIC
# Description: as §1, §2
# [10] = test system: Candida krusei AR Bank #397; test: MIC determination by in vitro antifungal assay; type: cell-based; details: Pichia kudriavzevii; Candida strain AR Bank #397; read-out: MIC
# Description: as §1, §2
# [11] = test system: Candida duobushaemulonii AR Bank #391; test: MIC determination by in vitro antifungal assay; type: cell-based; details: Candidozyma duobushaemuli, read-out: MIC
# Description: as §1, §2
# [12] = test system: panel of ten C. auris strains (AR Bank #381-390); test: MIC determination, summary over the C. auris panel; type: cell-based, Candida auris; details: Candidozyma auris; against all ten C. auris strains tested (AR Bank #381-390)
# Description: as §1, §2
SMILES,toxicity [1],MIC [2],MIC [3],MIC [4],MIC [5],MIC [6],MIC [7],MIC [8],MIC [9],MIC [10],MIC [11],MIC [12],cell survival ([1]; at 31.3 j·tg mL^−1)
O=C(NNc1ccc(F)cc1F)c1ccccn1 [Compound 2g],no toxicity,0.06 to 7.8 µg/mL,0.98 µg/mL,0.49 µg/mL,0.24 µg/mL,0.49 µg/mL,0.49 µg/mL,3.9 µg/mL,1.95 µg/mL,≤ 0.06 µg/mL,0.12 µg/mL,0.06 to 1.95 µg/mL,
O=C(NNc1cc(F)cc(F)c1)c1ccccn1 [Compound 2i],,0.06 to 1.95 µg/mL,0.12 µg/mL,0.49 µg/mL,0.24 µg/mL,0.49 µg/mL,1.95 µg/mL,0.24 µg/mL,0.49 µg/mL,0.12 µg/mL,0.24 µg/mL,0.06 to 1.95 µg/mL,89%
O=C(NNc1cccc(Cl)c1)c1cnccn1 [Compound 9b],no toxicity,0.06 to 1.95 µg/mL,0.12 µg/mL,0.12 µg/mL,0.24 µg/mL,0.24 µg/mL,0.98 µg/mL,0.12 µg/mL,0.49 µg/mL,0.12 µg/mL,0.24 µg/mL,0.06 to 1.95 µg/mL,
COc1ccc(NNC(=O)c2cnccn2)cc1 [Compound 9f],no toxicity,0.06 to 1.95 µg/mL,0.98 µg/mL,0.49 µg/mL,0.49 µg/mL,0.24 µg/mL,0.98 µg/mL,0.49 µg/mL,0.98 µg/mL,0.49 µg/mL,0.49 µg/mL,0.06 to 1.95 µg/mL,
O=C(NNc1ccc(F)cc1F)c1cnccn1 [Compound 9g],no toxicity,0.06 to 7.8 µg/mL,0.98 µg/mL,0.24 µg/mL,1.95 µg/mL,0.24 µg/mL,7.8 µg/mL,7.8 µg/mL,3.9 µg/mL,1.95 µg/mL,0.49 µg/mL,0.12 to 7.8 µg/mL,
